From PubChem BioAssay (NCI)
Where “and” joins values, the source holds several entries; their conditions need not be identical. Equal entries are not always repeated.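 How tested: cells in 96-well plates exposed to compound for 48 hours at five concentrations. GI50 marks 50% less growth. TGI marks complete inhibition of growth.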

Experiments:
Assay in all cases: NCI tumour cell line growth inhibition, 48 h
HT29 colon = tested on: HT29 colon
NCI-H522 lung = tested on: NCI-H522 lung
TK-10 renal = tested on: TK-10 renal
A498 renal = tested on: A498 renal
A549 NSCLC = tested on: A549 NSCLC
NCI-H23 lung = tested on: NCI-H23 lung
HOP-18 NSCLC = tested on: HOP-18 NSCLC
SNB-78 CNS = tested on: SNB-78 CNS
BT-549 breast = tested on: BT-549 breast
PC-3 prostate = tested on: PC-3 prostate

Compound | TGI (HT29 colon) | TGI (NCI-H522 lung) | TGI (TK-10 renal) | TGI (A498 renal) | TGI (A549 NSCLC) | TGI (NCI-H23 lung) | TGI (HOP-18 NSCLC) | TGI (SNB-78 CNS) [µM] | GI50 (A498 renal) [µM] | GI50 (SNB-78 CNS) [µM] | GI50 (HT29 colon) | TGI (BT-549 breast) [µM] | TGI (PC-3 prostate) | GI50 (NCI-H522 lung) | GI50 (TK-10 renal) | GI50 (A549 NSCLC) | GI50 (NCI-H23 lung) | GI50 (HOP-18 NSCLC) [µM] | GI50 (BT-549 breast) | GI50 (PC-3 prostate)
Cc1nc(-n2nc(-c3ccccc3)cc2-c2ccccc2)sc1C(=O)/C=C/c1ccccc1 | > 100 µM | > 100 µM | > 100 µM | > 100 µM | > 100 µM | > 100 µM | > 100 µM | > 100 | – | – | – | – | – | – | – | – | – | – | – | –
O=c1cccccc1[O-].O=c1cccccc1[O-].O=c1cccccc1[O-].[Sm+3] | > 100 µM | > 100 µM | > 100 µM | > 100 µM | > 100 µM | 71.5 µM | – | > 100 | 87.5 | 30.6 | – | – | – | – | – | – | – | – | – | –
Nc1ccc(C(=O)/C=C/c2ccccc2O)cc1 | > 100 µM | > 100 µM | > 100 µM | > 100 µM | > 100 µM | > 100 µM | – | > 100 | – | – | – | – | – | – | – | – | – | – | – | –
O=C1CNN=C(Cn2nc(-c3ccccc3)c3ccccc3c2=O)N1 | > 100 µM | > 100 µM | > 100 µM | > 100 µM | > 100 µM | > 100 µM | > 100 µM | > 100 | – | – | – | – | – | – | – | – | – | – | – | –
CC1CC(C)C(C(O)CC2CC(=O)N(c3ccccc3)C(=O)C2)C(O)C1 (stereo not drawn) | > 100 µM | > 100 µM | > 100 µM | > 100 µM | > 100 µM | > 100 µM | > 100 µM | > 100 | – | – | – | – | – | – | – | – | – | – | – | –
O=NN(CCCl)C(=O)NC1CCCCC1 | 139 µM and 165 µM | 26.1 µM and 75.4 µM and 83.2 µM | 86.8 µM and 152 µM and 177 µM | 155 µM | 184 µM and 244 µM | 152 µM and 235 µM | 56.2 µM and 152 µM | – | – | – | 36.6 µM and 64.3 µM | 81.7 | 136 µM | 12.5 µM and 42.5 µM | 28 µM and 87.4 µM | 45.6 µM and 92.2 µM | 116 µM | 84.4 | – | –
CN(C)c1ccc(N=C2C=CC(=C(C#N)C#N)c3ccccc32)cc1 | 10.4 µM | 0.305 µM | 16.4 µM | 1.37 µM | 13.7 µM | 4.19 µM | 16.3 µM | 16.7 | – | – | – | 5.12 | 10.8 µM | – | – | – | – | – | – | –
c1ccc2c3c([nH]c2c1)C1C2CCCCN2C(c2ccncc2)N1CC3 (stereo not drawn) | > 100 µM | > 100 µM | – | – | > 100 µM | > 100 µM | – | > 100 | – | – | – | – | – | – | – | – | – | – | – | –
O=C(CC1=Nc2nnc(-c3nnc4n3C(=O)C(CC(=O)C3CC3)=N4)n2C1=O)C1CC1 | > 100 µM | > 100 µM | > 100 µM | > 100 µM | > 100 µM | > 100 µM | – | > 100 | – | – | – | – | – | – | – | – | – | – | – | –
COC(=O)C1CCC(=O)N1/C(C)=N/NC(=O)Nc1ccc(Cl)c(Cl)c1 (stereo not drawn) | – | – | > 100 µM | > 100 µM | > 100 µM | > 100 µM | – | > 100 | – | – | – | – | – | – | – | – | – | – | – | –
CCCCCCCCCCCCCCC(C)CCC(=O)O (stereo not drawn) | > 100 µM | – | > 100 µM | > 100 µM | > 100 µM | > 100 µM | > 100 µM | > 100 | – | – | – | – | – | – | – | – | – | – | – | –
Nc1nc(=S)c2[nH]cnc2[nH]1 | 121 µM and > 250 µM | 3.04 µM and 6.04 µM and 7.26 µM | 41.3 µM and 67.7 µM and 9.02 µM | > 23.8 µM and 93.7 µM and 12.6 µM | > 57.7 µM and 105 µM and 85.1 µM | – | 139 µM | 172 | – | – | 0.544 µM | – | > 100 µM and 185 µM and > 250 µM | 0.418 µM and 2.07 µM and 1 µM | 0.375 µM and 0.542 µM and 1.26 µM | 2.29 µM and 4.7 µM and 5.85 µM | 0.481 µM and 3.07 µM | – | 0.716 µM and 1.4 µM and 1.85 µM | 1.28 µM and 3.35 µM and 2.83 µM
CC(=O)[O-].[Mn+3].[O-]c1ccc(Cl)cc1C=NCCN=Cc1cc(Cl)ccc1[O-] | > 100 µM | > 100 µM | > 100 µM | > 100 µM | > 100 µM | > 100 µM | > 100 µM | > 100 | > 100 | > 100 | > 100 µM | – | – | > 100 µM | > 100 µM | > 100 µM | > 100 µM | 51.9 | – | –
COc1ccc(C(=O)O/N=C2/CCCCC2CN(C)C)cc1 (stereo not drawn) | > 100 µM | > 100 µM | > 100 µM | > 100 µM | > 100 µM | > 100 µM | > 100 µM | > 100 | – | – | – | – | – | – | – | – | – | – | – | –
COC(=O)c1sc(=NC(=S)N2CCCCC2)sc1C(=O)OC | – | – | > 100 µM | > 100 µM | – | – | > 100 µM | > 100 | – | – | – | – | – | – | – | – | – | – | – | –
OCC(O)C(O)C(O)C(O)c1nn[nH]n1 (stereo not drawn) | > 100 µM | > 100 µM | – | – | > 100 µM | > 100 µM | – | > 100 | – | – | – | – | – | – | – | – | – | – | – | –
CN(C)c1ccc(O[Si](Oc2ccc(N(C)C)cc2)(Oc2ccc(N(C)C)cc2)Oc2ccc(N(C)C)cc2)cc1 | > 100 µM | > 100 µM | > 100 µM | > 100 µM | > 100 µM | > 100 µM | > 100 µM | – | – | – | – | – | – | – | – | – | – | – | – | –
CC(=O)OCC1OC(n2c(=S)n(-c3ccccc3)c(=O)c3cc(Br)cc(Br)c32)C(OC(C)=O)C(OC(C)=O)C1OC(C)=O (stereo not drawn) | > 100 µM | > 100 µM and 84.7 µM | – | > 100 µM | > 100 µM | 92.1 µM and > 100 µM | – | > 100 | – | – | – | – | – | > 100 µM and 28.6 µM | – | – | 19.1 µM and 72.3 µM | – | – | –
COC(=O)[C@H](Cc1cn(C)cn1)NC(=O)[C@@H](NC(=O)Nc1cc(C(F)(F)F)cc(C(F)(F)F)c1)C(C)C | 4.89 µM | 3.66 µM | > 10 µM | > 10 µM | > 10 µM | > 10 µM | – | – | > 10 | – | 2.23 µM | 7.9 | > 10 µM | 1.71 µM | 9.9 µM | > 10 µM | 4.6 µM | – | 2.51 µM | 4.35 µM
